Assay [1] addresses T1, human PPARγ (Homo sapiens, UniProt P37231).
T1 construct: expressed in transfected cells; host or cells: Cos-7 cells (ATCC, CRL-1651)
T1 sequence (P37231 238-503 limits assumed): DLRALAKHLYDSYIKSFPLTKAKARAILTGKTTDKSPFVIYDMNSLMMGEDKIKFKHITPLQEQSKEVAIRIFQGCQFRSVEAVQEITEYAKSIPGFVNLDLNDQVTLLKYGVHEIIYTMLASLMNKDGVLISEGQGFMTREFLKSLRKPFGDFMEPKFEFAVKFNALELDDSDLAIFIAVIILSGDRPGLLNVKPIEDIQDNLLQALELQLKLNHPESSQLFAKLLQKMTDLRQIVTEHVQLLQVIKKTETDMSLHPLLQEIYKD
Put plainly: Reporter gene transactivation, hPPAR-GAL4 gamma. The format is cell-based. Particulars: transfected Cos-7 cells, Gal-4 luciferase reporter, 24 hours treatment. A general note: Reporter assays use an easily measured gene product as a stand-in for the process of interest.

The target in assay [2] is T2, human PPARα (Homo sapiens, UniProt Q07869).
T2 construct: expressed in transfected cells; host or cells: Cos-7 cells (ATCC, CRL-1651)
T2 sequence (Q07869 239-466 limits assumed): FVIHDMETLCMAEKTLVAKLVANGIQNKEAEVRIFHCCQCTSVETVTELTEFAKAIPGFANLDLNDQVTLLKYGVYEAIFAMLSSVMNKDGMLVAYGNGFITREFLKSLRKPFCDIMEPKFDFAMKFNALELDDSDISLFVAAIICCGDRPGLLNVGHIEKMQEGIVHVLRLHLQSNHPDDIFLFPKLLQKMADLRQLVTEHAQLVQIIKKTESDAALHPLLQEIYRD
Briefly: Reporter gene transactivation, hPPAR-GAL4 alpha. The format is cell-based. To be noted: transfected Cos-7 cells, Gal-4 luciferase reporter, 24 hours treatment.

Assay [3] concerns insulin-resistant male rat (Ico: ZUCKER-fa/fa). Put plainly: Normalization of metabolic parameters (cholesterol, plasma triglycerides) in insulin-resistant rat. The format is in vivo. Particulars: oral route, once per day for four days, Zucker fa/fa rat unfed 16-18 hours; for change in vivo at 10 mg/kg / change in vivo at 2.5 mg/kg: 96 h. How it is done: Normalization of metabolic parameters (cholesterol, plasma triglycerides) in an insulin-resistant male rat (Ico: ZUCKER-fa/fa), unfed for 16-18 hours, after treatment by oral route, once per day for four days, with the compounds to be evaluated or their administration vehicle.
These metabolic parameters are measured by spectrophotometry at the beginning and the end of each animal's treatment.

[4] abbreviates: at 10 mg/kg, read-out: Plasma cholesterol.
Where [5] appears, read: at 10 mg/kg, read-out: Plasma triglycerides.

Read-outs that look alike come from different tables or passages of the source. A value given as a limit tells only on which side of the number the result lay.

For the compound `CCCCCCCn1nc(OCCc2cccc(OC(C)(C)C(=O)OCC)c2)c(=O)n(C)c1=O` [Example 2, Ethyl 2-{3-[2-(2-heptyl-4-methyl-3,5-dioxo-2,3,4,5-tetrahydro-[1,2,4]triazin-6-yloxy)-ethyl]-phenoxy}-2-methyl-propionate], the EC50 was about 10 µM in assay [1] and over 10 µM in assay [2].

Take `CCCCCCCn1nc(OCCCc2cccc(OC(C)(C)C(=O)OCC)c2)c(=O)n(C)c1=O` [Example 5, Ethyl 2-{3-[3-(2-heptyl-4-methyl-3,5-dioxo-2,3,4,5-tetrahydro-[1,2,4]triazin-6-yloxy)-propyl]-phenoxy}-2-methyl-propionate]: the EC50 in assay [1] is about 10 µM; in assay [2], about 3 µM.

As to `CCCCCCCn1c(=O)c(OCCCc2cccc(OC(C)(C)C(=O)OCC)c2)nn(C)c1=O` [Example 7, Ethyl 2-{3-[3-(4-heptyl-2-methyl-3,5-dioxo-2,3,4,5-tetrahydro-[1,2,4]triazin-6-yloxy)-propyl]-phenoxy}-2-methyl-propionate], the 50% effective concentration (EC50) was 1 to 3 µM in assay [1] and 0.3 to 1 µM in assay [2].

In the case of `CCCCCCCn1c(=O)c(OCCCc2cccc(OC(C)(C)C(=O)OCC)c2)nn(CCCC(F)(F)F)c1=O` [Example 8, Ethyl 2-(3-{3-[4-heptyl-3,5-dioxo-2-(4,4,4-trifluoro-butyl)-2,3,4,5-tetrahydro-[1,2,4]triazin-6-yloxy]-propyl}-phenoxy)-2-methyl-propionate], the figures for the concentration for a half-maximal effect (EC50) in assay [1] and in assay [2] were 3 to 10 µM and about 0.3 µM, respectively.

Take `CCOC(=O)C(C)(C)Oc1cccc(CCCCCOc2nn(CCCC(F)(F)F)c(=O)n(C)c2=O)c1` [Example 9, Ethyl 2-methyl-2-(3-{5-[4-methyl-3,5-dioxo-2-(4,4,4-trifluoro-butyl)-2,3,4,5-tetrahydro-[1,2,4]triazin-6-yloxy]-pentyl}-phenoxy)-propionate]: the figures for the 50% effective concentration (EC50) in assay [1] and in assay [2] were about 10 µM and 3 to 10 µM, respectively.

Regarding `CCCCCCCn1nc(OCCCCCc2cccc(OC(C)(C)C(=O)OCC)c2)c(=O)n(C)c1=O` [Example 10, Ethyl 2-{3-[5-(2-heptyl-4-methyl-3,5-dioxo-2,3,4,5-tetrahydro-[1,2,4]triazin-6-yloxy)-pentyl]-phenoxy}-2-methyl-propionate], the EC50 in assay [1] is about 1 µM; in assay [2] it was 0.3 to 1 µM.

Turning to `CCCCn1c(=O)c(OCCCCCc2cccc(OC(C)(C)C(=O)O)c2)nn(C)c1=O` [Example 12, 2-{3-[5-(4-Butyl-2-methyl-3,5-dioxo-2,3,4,5-tetrahydro-[1,2,4]triazin-6-yloxy)-pentyl]-phenoxy}-2-methyl-propionic Acid], the concentration giving a half-maximal response (EC50) in assay [1] was 1 to 3 µM; in assay [2] it was about 0.03 µM.

`CCCCCCCn1nc(OCCc2ccc(OC(C)(C)C(=O)OCC)cc2)c(=O)n(C)c1=O` [Example 25, Ethyl 2-{4-[2-(2-heptyl-4-methyl-3,5-dioxo-2,3,4,5-tetrahydro-[1,2,4]triazin-6-yloxy)-ethyl]-phenoxy}-2-methyl-propionate] had an EC50 in assay [1] of over 10 µM.

In the case of `CCOC(=O)C(C)(C)Oc1ccc(OCCCNc2nn(C)c(=O)n(CCCC(F)(F)F)c2=O)cc1` [Example 46, Ethyl 2-methyl-2-(4-{3-[2-methyl-3,5-dioxo-4-(4,4,4-trifluoro-butyl)-2,3,4,5-tetrahydro-[1,2,4]triazin-6-ylamino]-propoxy}-phenoxy)-propionate], the results for the change in vivo at 10 mg/kg in assay [3] (setting [4]) and in assay [3] (setting [5]) were -13% and -32%, respectively. In assay [2], this compound had a concentration giving a half-maximal response (EC50) of 0.3 to 1 µM.

As for `CCCCCCCN(CCCOc1ccc(SC(C)(C)C(=O)OCC)cc1)c1nn(C)c(=O)n(C)c1=O` [Example 53, Ethyl 2-(4-{3-[(2,4-Dimethyl-3,5-dioxo-2,3,4,5-tetrahydro-[1,2,4]triazin-6-yl)-heptyl-amino]-propoxy}-phenylsulfanyl)-2-methyl-propionate], the change in vivo at 2.5 mg/kg in assay [3] (read-out: Plasma cholesterol) was -7%. Besides, in assay [3] (setting [4]), the change in vivo at 10 mg/kg was -28%. In addition, the Plasma triglycerides result in assay [3] (at 10 mg/kg) was “inactive at 10”. Besides, the concentration for a half-maximal effect (EC50) in assay [2] lay within 1 to 3 µM.

For `CCCCCCCn1c(=O)c(NCCc2cccc(OC(C)(C)C(=O)OCC)c2)nn(C)c1=O` [Example 59, Ethyl 2-{3-[2-(4-heptyl-2-methyl-3,5-dioxo-2,3,4,5-tetrahydro-[1,2,4]triazin-6-ylamino)-ethyl]-phenoxy}-2-methyl-propionate], the figures for the change in vivo at 2.5 mg/kg in assay [3] (read-out: Plasma cholesterol) and in assay [3] (read-out: Plasma triglycerides) were -37% and -13%, respectively. In assay [2], this compound yielded an EC50 of 1 to 3 µM.

Take `CCCCCCCn1c(=O)c(NCCCc2cccc(OC(C)(C)C(=O)OCC)c2)nn(C)c1=O` [Example 67, Ethyl 2-{3-[3-(4-heptyl-2-methyl-3,5-dioxo-2,3,4,5-tetrahydro-[1,2,4]triazin-6-ylamino)-propyl]-phenoxy}-2-methyl-propionate]: the change in vivo at 10 mg/kg was -14% in assay [3] (setting [4]) and -23% in assay [3] (setting [5]). Moreover, the EC50 in assay [2] was about 1 µM.

Consider `CCOC(=O)C(C)(C)Sc1cccc(CCCCNc2nn(CCCC(F)(F)F)c(=O)n(C)c2=O)c1` [Example 93, Ethyl 2-methyl-2-(3-{4-[4-methyl-3,5-dioxo-2-(4,4,4-trifluoro-butyl)-2,3,4,5-tetrahydro-[1,2,4]triazin-6-ylamino]-butyl}-phenylsulfanyl)-propionate], for which the EC50 in assay [2] is over 10 µM.

`CCCCCCCn1c(=O)c(NCCCCc2cccc(SC(C)(C)C(=O)OCC)c2)nn(CCCC(F)(F)F)c1=O` [Example 97, Ethyl 2-(3-{4-[4-heptyl-3,5-dioxo-2-(4,4,4-trifluoro-butyl)-2,3,4,5-tetrahydro-[1,2,4]triazin-6-ylamino]-butyl}-phenylsulfanyl)-2-methyl-propionate] had an EC50 in assay [2] of 1 to 3 µM.

Compound `CCCCCCCn1nc(NCCCCc2cccc(SC(C)(C)C(=O)OCC)c2)c(=O)n(CCCCCCC)c1=O` [Example 98, Ethyl 2-{3-[4-(2,4-diheptyl-3,5-dioxo-2,3,4,5-tetrahydro-[1,2,4]triazin-6-ylamino)-butyl]-phenylsulfanyl}-2-methyl-propionate] registered an EC50 in assay [2] of over 10 µM.

With `CCCCCCCn1nc(NCCCCc2cccc(SC(C)(C)C(=O)OCC)c2)c(=O)n(Cc2ccccc2)c1=O` [Example 101, Ethyl 2-{3-[4-(4-benzyl-2-heptyl-3,5-dioxo-2,3,4,5-tetrahydro-[1,2,4]triazin-6-ylamino)-butyl]-phenylsulfanyl}-2-methyl-propionate], the EC50 in assay [2] lay within 1 to 3 µM.

In assay [2], `CCOC(=O)C(C)(C)Oc1ccc(CCNc2nn(CCCC(F)(F)F)c(=O)n(C)c2=O)cc1` [Example 102, Ethyl 2-methyl-2-(4-{2-[4-methyl-3,5-dioxo-2-(4,4,4-trifluoro-butyl)-2,3,4,5-tetrahydro-[1,2,4]triazin-6-ylamino]-ethyl}-phenoxy)-propionate] gave a concentration for a half-maximal effect (EC50) of over 10 µM.

In assay [2], `CCCCCCCn1c(=O)c(NCCc2ccc(OC(C)(C)C(=O)OCC)cc2)nn(CCCC(F)(F)F)c1=O` [Example 107, Ethyl 2-(4-{2-[4-heptyl-3,5-dioxo-2-(4,4,4-trifluoro-butyl)-2,3,4,5-tetrahydro-[1,2,4]triazin-6-ylamino]-ethyl}-phenoxy)-2-methyl-propionate] yielded a concentration for a half-maximal effect (EC50) of about 1 µM.

For the compound `CCCCCCCn1nc(NCCc2ccc(OC(C)(C)C(=O)OCC)cc2)c(=O)n(CCCCCCC)c1=O` [Example 108, Ethyl 2-{4-[2-(2,4-diheptyl-3,5-dioxo-2,3,4,5-tetrahydro-[1,2,4]triazin-6-ylamino)-ethyl]-phenoxy}-2-methyl-propionate], the EC50 in assay [2] is over 10 µM.

As for `CCOC(=O)C(C)(C)Oc1ccc(CCN(CCc2ccccc2)c2nn(C)c(=O)n(C)c2=O)cc1` [Example 114, Ethyl 2-(4-{2-[(2,4-dimethyl-3,5-dioxo-2,3,4,5-tetrahydro-[1,2,4]triazin-6-yl)-phenethyl-amino]-ethyl}-phenoxy)-2-methyl-propionate], in assay [2], the EC50 is about 10 µM.

The compound `CCCCCCCn1c(=O)c(N(CCc2ccccc2)CCc2ccc(OC(C)(C)C(=O)OCC)cc2)nn(C)c1=O` [Example 116, Ethyl 2-(4-{2-[(4-heptyl-2-methyl-3,5-dioxo-2,3,4,5-tetrahydro-[1,2,4]triazin-6-yl)-phenethyl-amino]-ethyl}-phenoxy)-2-methyl-propionate] gave an EC50 in assay [2] of about 10 µM.

In assay [2], `CCCCCCCn1c(=O)c(N(CCCc2ccccc2)CCc2ccc(OC(C)(C)C(=O)OCC)cc2)nn(C)c1=O` [Example 117, Ethyl 2-(4-{2-[(4-heptyl-2-methyl-3,5-dioxo-2,3,4,5-tetrahydro-[1,2,4]triazin-6-yl)-(3-phenyl-propyl)-amino]-ethyl}-phenoxy)-2-methyl-propionate] had an EC50 of about 10 µM.

Broadly, the EC50 is the concentration giving half of the maximal effect.

The values above are taken from patent US7713971B2, “1,2,4-triazine derivatives, preparation and use thereof in human therapy” (Pierre Fabre Medicament, priority 2005, dated 2010).
